Test results as given in patent publication US20240142467A1, “Use of Biomarkers in the Treatment of Fibrotic Conditions with a PDE4B-inhibitor” (Boehringer Ingelheim International GmbH, priority 2022, published 2024).

Test system: patients with idiopathic pulmonary fibrosis
Experiment: Phase 2 trial NCT04419506: biomarker analysis in blood plasma or serum (ELISA, Luminex; MMRM)
Assay type: in vivo, human
Experimental: Blood samples were collected from patients during the clinical phase 2 trial at baseline, at 2, 4, 8 and 12 weeks (after baseline) of the “Compound of formula A′ treatment arm” and of the “Placebo arm”, and blood plasma and/or blood serum was prepared according to methods known in the art.
Fibrosis-related biomarkers were assessed in plasma or serum using ELISA or Luminex technologies. The changes in these fibrosis-related biomarkers at weeks 2, 4, 8 and 12 after baseline were analysed using mixed models with repeated measures (MMRM). The fold changes in the tested biomarkers over baseline over time were then compared between patients of the of the “Compound of formula A′ treatment arm” and patients of the “Placebo arm”.
Biomarker values were only considered valid up to +2 days for CRP and up to +7 days after last drug intake for all other proteins.
At MLM (MLM Medical Labs GmbH, Mönchengladbach, Germany, www.mlm-labs.com) the biomarker KL-6 (Krebs von den Lungen) was measured using CLEIA Test kits (Lumipulse® G KL-6 Immunoreaction Cartridges) from Fujirebio (www.fujirebio.com) and a Lumipulse G1200 system, the biomarker sICAM-1 was measured using an ECLIA assay (V-PLEX Plus Vascular Injury Panel 2 Human Kit) from Meso Scale Discovery (MSD) on the Meso QuickPlex SQ120 device, and the biomarker MMP-7 was measured using a Quantikine® ELISA assay (Human MMP-7/PARC Quantikine® ELISA kit) from R&D Systems on a TECAN Absorbance Reader, according to manufacturer's instructions.
The biomarkers CA-125, CA19-9, COMP, CRP, E-selectin, sICAM-1, MMP-3, MMP-7, Prostasin, TIMP-1, and vWF were measured using validated microsphere-based immune-multiplexing assays using Luminex technology at MyriadRBM (Rules Based Medicine, a q2 solutions company, Austin, Texas, USA, www.rbm.q2labsolutions.com).
The biomarker data as collected from the different treatment groups of the phase II trial have been analysed with regard to three different aspects: • 1. The biomarker data has been analysed with regard to the “pharmacodynamic potential” of each respective biomarker, that means the change from baseline (CfB) of the biomarker level over time during treatment with the compound of formula A′ has been analysed. […] The biomarker data has been analysed with regard to the “prognostic potential” of each respective biomarker, that means the level of biomarker at baseline vs. clinical outcome after 12 weeks (=the absolute FVC [mL] change from baseline at week 12 and the absolute change from baseline in Dlco % predicted at week 12) in the Placebo groups has been analysed which is disease-related and may be used to assess the progression of the disease (e.g. fast vs. slow progressors). • 3. The biomarker data has been analysed with regard to their “outcome-related potential” of each respective biomarker, that means the change from baseline (CfB) in biomarker level vs. the clinical outcomes after 12 weeks (=the absolute FVC [mL] change from baseline at week 12 and the absolute change from baseline in Dlco % predicted at week 12) in the compound of formula A′ treatment groups has been analysed. Hereby, a potential early prediction of both clinical endpoint and treatment effect may be achieved.

[1] = AF-background, listed as Comp. A′
[2] = Non-AF-background, listed as Comp. A′

For [O-][S@+]1CCc2nc(N3CCC(c4ncc(Cl)cn4)CC3)nc(NC3(CO)CCC3)c21 [Compound of formula A′], the “CRP: change of biomarker from baseline to Week 12 in Comp. A′ arm vs. Placebo arm” value (shortened to “CRP: change of biomarker from baseline”) (AF-background) was “increased”, the “E-selectin: change of biomarker from baseline to Week 12 in Comp. A′ arm vs. Placebo arm” value (from here on “E-selectin: change of biomarker”) (AF-background) was “decreased” and the “KL-6: change of biomarker from baseline to Week 12 in Comp. A′ arm vs. Placebo arm” value (“KL-6: change of biomarker from baseline” below) (AF-background) was “decreased”. For the same molecule, the “Matrilysin (MMP7, MLM): change of biomarker from baseline to Week 12 in Comp. A′ arm vs. Placebo arm” value (“Matrilysin (MMP7, MLM): change” for short) (AF-background) was “decreased”, the “Prostasin: change of biomarker from baseline to Week 12 in Comp. A′ arm vs. Placebo arm” value (“Prostasin: change of biomarker” below) (AF-background) was “↓” and the “SP-D: change of biomarker from baseline to Week 12 in Comp. A′ arm vs. Placebo arm” value (“SP-D: change of biomarker from baseline” below) (AF-background) was “decreased”. For the same molecule, the “CA19.9 (U/mL): fold change from baseline to Week 4, adjusted mean” value (AF-background, blood, MMRM) was 0.987, the “CA19.9 (U/mL): fold change from baseline to Week 12, adjusted mean” value (AF-background, blood, MMRM) was 0.914 and the “CA-125 (MUC-16) (U/mL): fold change from baseline to Week 4, adjusted mean” value (AF-background, blood, MMRM) was 1.030. For the same molecule, the “CA-125 (MUC-16) (U/mL): fold change from baseline to Week 12, adjusted mean” value (AF-background, blood, MMRM) was 1.067, the “COMP (μg/L): fold change from baseline to Week 4, adjusted mean” value (AF-background, blood, MMRM) was 0.991 and the “COMP (μg/L): fold change from baseline to Week 12, adjusted mean” value (AF-background, blood, MMRM) was 1.023. For the same molecule, the “CRP (mg/L): fold change from baseline to Week 4, adjusted mean” value (AF-background, blood, MMRM) was 1.780, the “CRP (mg/L): fold change from baseline to Week 12, adjusted mean” value (AF-background, blood, MMRM) was 1.545 and the “E-selectin (μg/L): fold change from baseline to Week 4, adjusted mean” value (AF-background, blood, MMRM) was 0.933. The “E-selectin (μg/L): fold change from baseline to Week 12, adjusted mean” value (AF-background, blood, MMRM) was 0.936, the “KL-6 (U/mL): fold change from baseline to Week 4, adjusted mean” value (AF-background, blood, MMRM) was 0.960 and the “KL-6 (U/mL): fold change from baseline to Week 12, adjusted mean” value (AF-background, blood, MMRM) was 0.923. For the same molecule, the “Matrilysin (μg/L) (MMP7, MLM): fold change from baseline to Week 4, adjusted mean” value (AF-background, blood, MMRM) was 0.941, the “Matrilysin (μg/L) (MMP7, MLM): fold change from baseline to Week 12, adjusted mean” value (AF-background, blood, MMRM) was 0.981 and the “Prostasin (μg/L): fold change from baseline to Week 4, adjusted mean” value (AF-background, blood, MMRM) was 0.939. For the same molecule, the “Prostasin (μg/L): fold change from baseline to Week 12, adjusted mean” value (AF-background, blood, MMRM) was 0.933, the “SP-D (μg/L): fold change from baseline to Week 4, adjusted mean” value (AF-background, blood, MMRM) was 0.879 and the “SP-D (μg/L): fold change from baseline to Week 12, adjusted mean” value (AF-background, blood, MMRM) was 0.894. The “Stromelysin-1 MMP3) (μg/L): fold change from baseline to Week 4, adjusted mean” value (AF-background, blood, MMRM) was 1.063, the “Stromelysin-1 MMP3) (μg/L): fold change from baseline to Week 12, adjusted mean” value (AF-background, blood, MMRM) was 1.056 and the “sICAM1 (RBM) (μg/L): fold change from baseline to Week 4, adjusted mean” value (AF-background, blood, MMRM) was 1.049. The “sICAM1 (RBM) (μg/L): fold change from baseline to Week 12, adjusted mean” value (AF-background, blood, MMRM) was 1.069, the “vWF (mg/L): fold change from baseline to Week 4, adjusted mean” value (AF-background, blood, MMRM) was 1.035 and the “vWF (mg/L): fold change from baseline to Week 12, adjusted mean” value (AF-background, blood, MMRM) was 0.964. For the same molecule, the “CRP: change of biomarker from baseline” value [1] was “↑ (significant increase)”, the “E-selectin: change of biomarker” value [1] was “↓” and the “KL-6: change of biomarker from baseline” value [1] was “↓ (significant decrease)”. For the same molecule, the “Matrilysin (MMP7, MLM): change” value [1] was “↓”, the “SP-D: change of biomarker from baseline” value [1] was “↓ (significant decrease)” and the “CA19-9: change of biomarker from baseline to Week 12 in Comp. A′ arm vs. Placebo arm” value (Non-AF-background) was “↓”. For the same molecule, the “CA-125 (MUC-16): change of biomarker from baseline to Week 12 in Comp. A′ arm vs. Placebo arm” value (Non-AF-background) was “decreased”, the “COMP: change of biomarker from baseline to Week 12 in Comp. A′ arm vs. Placebo arm” value (Non-AF-background) was “decreased” and the “CRP: change of biomarker from baseline” value (Non-AF-background) was “increased”. For the same molecule, the “E-selectin: change of biomarker” value (Non-AF-background) was “decreased”, the “KL-6: change of biomarker from baseline” value (Non-AF-background) was “decreased” and the “Matrilysin (MMP7, MLM): change” value (Non-AF-background) was “decreased”. For the same molecule, the “Prostasin: change of biomarker” value (Non-AF-background) was “decreased”, the “SP-D: change of biomarker from baseline” value (Non-AF-background) was “decreased” and the “Stromelysin-1 (MMP3): change of biomarker from baseline to Week 12 in Comp. A′ arm vs. Placebo arm” value (Non-AF-background) was “↓”. The “sICAM1 (RBM): change of biomarker from baseline to Week 12 in Comp. A′ arm vs. Placebo arm” value (Non-AF-background) was “basically the same”, the “vWF: change of biomarker from baseline to Week 12 in Comp. A′ arm vs. Placebo arm” value (Non-AF-background) was “decreased” and the “CA19-9 (U/mL): fold change from baseline to Week 4, adjusted mean” value (Non-AF-background, blood, MMRM) was 0.901. For the same molecule, the “CA19-9 (U/mL): fold change from baseline to Week 12, adjusted mean” value (Non-AF-background, blood, MMRM) was 1.016, the “CA-125 (MUC-16) (U/mL): fold change from baseline to Week 4, adjusted mean” value (Non-AF-background, blood, MMRM) was 0.956 and the “CA-125 (MUC-16) (U/mL): fold change from baseline to Week 12, adjusted mean” value (Non-AF-background, blood, MMRM) was 1.039. The “COMP (μg/L): fold change from baseline to Week 4, adjusted mean” value (Non-AF-background, blood, MMRM) was 0.970, the “COMP (μg/L): fold change from baseline to Week 12, adjusted mean” value (Non-AF-background, blood, MMRM) was 0.949 and the “CRP (mg/L): fold change from baseline to Week 4, adjusted mean” value (Non-AF-background, blood, MMRM) was 2.134. The “CRP (mg/L): fold change from baseline to Week 12, adjusted mean” value (Non-AF-background, blood, MMRM) was 1.479, the “E-selectin (μg/L): fold change from baseline to Week 4, adjusted mean” value (Non-AF-background, blood, MMRM) was 0.943 and the “E-selectin (μg/L): fold change from baseline to Week 12, adjusted mean” value (Non-AF-background, blood, MMRM) was 0.982. The “KL-6 (U/mL): fold change from baseline to Week 4, adjusted mean” value (Non-AF-background, blood, MMRM) was 0.911, the “KL-6 (U/mL): fold change from baseline to Week 12, adjusted mean” value (Non-AF-background, blood, MMRM) was 0.916 and the “Matrilysin (μg/L) (MMP7, MLM): fold change from baseline to Week 4, adjusted mean” value (Non-AF-background, blood, MMRM) was 0.908. For the same molecule, the “Matrilysin (μg/L) (MMP7, MLM): fold change from baseline to Week 12, adjusted mean” value (Non-AF-background, blood, MMRM) was 0.883, the “Prostasin (μg/L): fold change from baseline to Week 4, adjusted mean” value (Non-AF-background, blood, MMRM) was 0.883 and the “Prostasin (μg/L): fold change from baseline to Week 12, adjusted mean” value (Non-AF-background, blood, MMRM) was 0.905. The “SP-D (μg/L): fold change from baseline to Week 4, adjusted mean” value (Non-AF-background, blood, MMRM) was 0.833, the “SP-D (μg/L): fold change from baseline to Week 12, adjusted mean” value (Non-AF-background, blood, MMRM) was 0.875 and the “Stromelysin-1 MMP3) (μg/L): fold change from baseline to Week 4, adjusted mean” value (Non-AF-background, blood, MMRM) was 0.963. The “Stromelysin-1 MMP3) (μg/L): fold change from baseline to Week 12, adjusted mean” value (Non-AF-background, blood, MMRM) was 0.960, the “sICAM1 (RBM) (μg/L): fold change from baseline to Week 4, adjusted mean” value (Non-AF-background, blood, MMRM) was 0.956 and the “sICAM1 (RBM) (μg/L): fold change from baseline to Week 12, adjusted mean” value (Non-AF-background, blood, MMRM) was 0.937. For the same molecule, the “vWF (μg/L) (mg/L): fold change from baseline to Week 4, adjusted mean” value (Non-AF-background, blood, MMRM) was 0.991, the “vWF (μg/L) (mg/L): fold change from baseline to Week 12, adjusted mean” value (Non-AF-background, blood, MMRM) was 0.972 and the “CA-125 (MUC-16): change of biomarker from baseline to Week 12 in Comp. A′ arm vs. Placebo arm” value [2] was “↓ (minor decrease)”. For the same molecule, the “COMP: change of biomarker from baseline to Week 12 in Comp. A′ arm vs. Placebo arm” value [2] was “↓”, the “CRP: change of biomarker from baseline” value [2] was “↑ (significant increase)” and the “E-selectin: change of biomarker” value [2] was “↓”. For the same molecule, the “KL-6: change of biomarker from baseline” value [2] was “↓ (significant decrease)”, the “Matrilysin (MMP7, MLM): change” value [2] was “↓ (significant decrease)” and the “Prostasin: change of biomarker” value [2] was “↓”. The “SP-D: change of biomarker from baseline” value [2] was “↓ (significant decrease)”, the “vWF: change of biomarker from baseline to Week 12 in Comp. A′ arm vs. Placebo arm” value [2] was “↓” and the “elevation of the CRP-levels” value (treatment groups regardless of background therapy) was “approximately 2 ×”.
